Reference: patent publication US12471596B2 (priority 2019, dated 2025)

How the values were obtained:
Phytophthora infestans [1] = assay: microbe, parasite or virus in culture; type: cell-based; conditions: in Secale cereale, 168 h, read-out: control compared to the untreated check
Phytophthora infestans [2] = assay: whole plant or invertebrate; type: in vivo, Phytophthora infestans on tomato plants; conditions: in Solanum lycopersicum, 24 h, read-out: control compared to the untreated check
Plasmopara viticola = assay: Example B: Plasmopara viticola test in grape (greenhouse, preventive); type: in vivo; conditions: 24 h, grape seedlings sprayed one day before inoculation, disease severity rating, read-out: control compared to the untreated check
Method: Example B: Plasmopara viticola Test in Grape
The compound were dissolved in 2% DMSO/Acetone & then mixed with water containing emulsifier to a calibrated spray volume of 50 mL. The spray solutions were poured into spray bottles for further applications.
To test the preventive activity of compounds, 5 week old healthy grape seedlings, cv. Thompson seedless, raised in the greenhouse, were sprayed with the active compound preparation at the stated application rates inside spray cabinets using hallow cone nozzles. One day after treatment, the plants were inoculated with an inoculum suspension (sterile water) containing 6×10^4 Plasmopara viticola inoculum. The inoculated plants were then kept in a greenhouse chamber at 18-21° C. temperature and 95-100% relative humidity for disease expression.
A visual assessment of the performance of the compound was carried out by rating the disease severity (0-100% scale) on treated plants 3, 7 and 10 days after application. Efficacy (% control) of the compound was calculated by comparing the disease rating in the treatment with the one of the untreated control. The compounds were also assessed for their plant compatibility by recording symptoms like necrosis, chlorosis & stunting

N#Cc1ccnc(OCC(=O)N2CCC(c3nc(C4=NOC(c5c(Cl)cccc5C(F)(F)F)C4)cs3)CC2)n1 (stereo not drawn) [Compound 114, 2-(2-(4-(4-(5-(2-chloro-6-(trifluoromethyl)phenyl)-4,5-dihydroisoxazol-3-yl)thiazol-2-yl)piperidin-1-yl)-2-oxoethoxy)pyrimidine-4-carbonitrile]
≥ 70%: inhibition of growth at 30 ppm (Phytophthora infestans [1]) | pest or weed control at 50 ppm (Phytophthora infestans [2]) | pest or weed control at 50 ppm (Plasmopara viticola)

O=C(COc1nccnc1Cl)N1CCC(c2nc(C3=NOC(c4c(Cl)cccc4Cl)C3)cs2)CC1 (stereo not drawn) [Compound 124, 2-((3-chloropyrazin-2-yl)oxy)-1-(4-(4-(5-(2,6-dichlorophenyl)-4,5-dihydroisoxazol-3-yl)thiazol-2-yl)piperidin-1-yl)ethan-1-one]
≥ 70%: inhibition of growth at 30 ppm (Phytophthora infestans [1]) | pest or weed control at 50 ppm (Phytophthora infestans [2]) | pest or weed control at 50 ppm (Plasmopara viticola)

N#Cc1ccnc(OCC(=O)N2CCC(c3nc(C4=NOC(c5c(F)cccc5F)C4)cs3)CC2)n1 (stereo not drawn) [Compound 116, 2-(2-(4-(4-(5-(2,6-difluorophenyl)-4,5-dihydroisoxazol-3-yl)thiazol-2-yl)piperidin-1-yl)-2-oxoethoxy)pyrimidine-4-carbonitrile]
≥ 70%: inhibition of growth at 30 ppm (Phytophthora infestans [1]) | pest or weed control at 50 ppm (Phytophthora infestans [2]) | pest or weed control at 50 ppm (Plasmopara viticola)

O=C(COc1nccnc1C(F)(F)F)N1CCC(c2nc(C3=NOC(c4c(Cl)cc(Cl)cc4Cl)C3)cs2)CC1 (stereo not drawn) [Compound 2, 1-(4-(4-(5-(2,4,6-trichlorophenyl)-4,5-dihydroisoxazol-3-yl)thiazol-2-yl)piperidin-1-yl)-2-((3-(trifluoromethyl)pyrazin-2-yl)oxy)ethan-1-one]
≥ 70%: inhibition of growth at 30 ppm (Phytophthora infestans [1]) | pest or weed control at 50 ppm (Phytophthora infestans [2]) | pest or weed control at 50 ppm (Plasmopara viticola)

CS(=O)(=O)Oc1cccc(Cl)c1C1CC(c2csc(C3CCN(C(=O)COc4nccc(C#N)n4)CC3)n2)=NO1 (stereo not drawn) [Compound 113, 3-chloro-2-(3-(2-(1-(2-((4-cyanopyrimidin-2-yl)oxy)acetyl)piperidin-4-yl)thiazol-4-yl)-4,5-dihydroisoxazol-5-yl)phenyl methanesulfonate]
≥ 70%: inhibition of growth at 30 ppm (Phytophthora infestans [1]) | pest or weed control at 50 ppm (Phytophthora infestans [2]) | pest or weed control at 50 ppm (Plasmopara viticola)

O=C(COc1nccnc1Cl)N1CCC(c2nc(C3=NOC(c4c(F)cccc4F)C3)cs2)CC1 (stereo not drawn) [Compound 122, 2-((3-chloropyrazin-2-yl)oxy)-1-(4-(4-(5-(2,6-difluorophenyl)-4,5-dihydroisoxazol-3-yl)thiazol-2-yl)piperidin-1-yl)ethan-1-one]
≥ 70%: inhibition of growth at 30 ppm (Phytophthora infestans [1]) | pest or weed control at 50 ppm (Phytophthora infestans [2]) | pest or weed control at 50 ppm (Plasmopara viticola)
